Laboratory results reported in patent US6191152A, “2-(1,2,4-triazole-1-yl)-1,3,4-thiadiazole derivatives having an effect on the C.N.S. and the heart” (EGIS Gyogyszergyar Rt., priority 1997, dated 2001).

Legend:
5-HT2A receptor = target: T1, 5-HT2A receptor (Rattus norvegicus, UniProt P14842); assay: 5-HT2A receptor binding, rat brain frontal cortex membrane, tritiated ketanserine; settings: read-out: Inhibition of receptor binding of the radioactive ligand (Ki), 5-HT2A
T1 construct: rat brain frontal cortex membrane preparation; from tissue; host or cells: rat brain frontal cortex membranes
Method: (§1) 4) 5-HT2A and 5-HT2C Receptor Binding Studies
(§2) 5-HT2A and 5-HT2C receptor binding was measured according to the methods described by Leysen et al. /Mol. Pharmacol., 21, 301 (1981)/and Pazos et al. /Eur. J. Pharmacol., 106, 539 (1985)/, respectively. 5-HT2A receptor binding was measured in rat brain frontal cortex membrane preparation using tritiated ketanserine /3-/2-(4-fluorobenzoyl)-1-piperidinyl/ethyl-2,4-(1H,3H)-quinazolinedione/ (60-90 Ci/mmole) as ligand. 5-HT2C receptor binding was measured in pig brain choroid plexus membrane-preparation using tritiated mesulergine /N'-/(8)-1,6-dimethylergoline-8-yl/-N,N-dimethylsulfamide (70-85 Ci/mmole) as the ligand. Non-specific binding to 5-HT2A and 5-HT2C receptors were determined in the presence of 10 micromoles of cyproheptadine /4-(5H-dibenzo/a,d/cycloheptene-5-ylidene)-1-methylpiperidine/and 1 micromole of mianserine /1,2,3,4,10,14b-hexahydro-2-methyldibenzo/c,f/pyrazino/1,2-a/azepine/, respectively. The final incubation volumes were 250 and 1000 microlitres. Samples were incubated for 15 and 30 minutes at 37° C. Incubation was stopped by adding 9 ml of ice-cold 50 mr- tris(hydroxymethyl)aminomethane hydrochloride (pH=7.7) to the reaction mixture. The samples were rapidly filtered through whatman GF/B glass fiber filters using reduced pressure. […] Radioactivity of the filters was determined by a scintillation spectrometer.

5-HT2C receptor = target: T2, 5-HT2C receptor (Sus scrofa, UniProt K7GSR7); assay: 5-HT2C receptor binding, pig brain choroid plexus membrane, tritiated mesulergine; settings: read-out: Inhibition of receptor binding of the radioactive ligand (Ki), 5-HT2C
T2 construct: pig brain choroid plexus membrane-preparation; from tissue; host or cells: pig brain choroid plexus membranes
T2 sequence (K7GSR7 1-457): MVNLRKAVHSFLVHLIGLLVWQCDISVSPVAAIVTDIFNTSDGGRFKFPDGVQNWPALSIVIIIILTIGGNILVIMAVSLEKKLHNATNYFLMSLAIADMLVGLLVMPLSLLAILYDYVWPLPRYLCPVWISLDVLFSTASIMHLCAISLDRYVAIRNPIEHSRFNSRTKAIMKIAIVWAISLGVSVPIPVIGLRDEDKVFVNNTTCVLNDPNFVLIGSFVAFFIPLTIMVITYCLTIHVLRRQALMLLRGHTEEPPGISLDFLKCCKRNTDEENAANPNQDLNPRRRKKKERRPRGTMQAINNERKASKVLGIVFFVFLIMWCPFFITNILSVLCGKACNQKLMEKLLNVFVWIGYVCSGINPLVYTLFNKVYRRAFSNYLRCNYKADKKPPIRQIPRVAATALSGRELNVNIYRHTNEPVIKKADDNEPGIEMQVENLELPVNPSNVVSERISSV
Method: as §1, §2

[1] = system: isolated rat thoracic aorta; assay: Vascular relaxing effect in isolated rat thoracic aorta contracted with 40 mM potassium chloride (diltiazem); parameters: species or system rat (male SPRD); settings: 40 mM KCl contracted strips, 37° C., read-out: IC50 (vascular relaxation in isolated rat thoracic aorta)
Method: Experiments were performed in thoracic aortas obtained from male SPRD rats weighing 250 to 300 g. Thoracic aortas excised from rats killed by decapitation and ensanguination were cleaned of fat and connective tissue, then were immediately placed in carbogenized TYRODE solution. The composition of the normal TYRODE solution was the following (in mM): NaCl 114.7, KCl 3.7, CaCl2 3.6, MgCl2 0.49, NaHCO3 19.9, NaH2 PO4 0.32, glucose 5.1.
Two mm wide and 20 to 25 mm long strips were cut from the aortas along a helical line at 45° angle. Aortic strips were mounted vertically between two cotton threads in 10 ml organ chambers, the lower threads were attached to the organ chambers and the upper threads were connected to isometric force transducers. The strips were incubated under 1 g resting tension at 37° C. for 120 minutes, then resting vascular tone was recorded. […]
When stable vascular tone developed, increasing doses of the test substance were added to the organ bath. The effects of each test substance were measured at least in 3 tissue preparations obtained from different animals. Decreases in vascular tension caused by the test substances were expressed as percentage changes and IC50 for each tissue preparation was determined by sigmoid (in few casses linear) curve fitting. […]

human beings = settings: Ceulemans et al.; cited from earlier work

T1 sequence (P14842 whole entry): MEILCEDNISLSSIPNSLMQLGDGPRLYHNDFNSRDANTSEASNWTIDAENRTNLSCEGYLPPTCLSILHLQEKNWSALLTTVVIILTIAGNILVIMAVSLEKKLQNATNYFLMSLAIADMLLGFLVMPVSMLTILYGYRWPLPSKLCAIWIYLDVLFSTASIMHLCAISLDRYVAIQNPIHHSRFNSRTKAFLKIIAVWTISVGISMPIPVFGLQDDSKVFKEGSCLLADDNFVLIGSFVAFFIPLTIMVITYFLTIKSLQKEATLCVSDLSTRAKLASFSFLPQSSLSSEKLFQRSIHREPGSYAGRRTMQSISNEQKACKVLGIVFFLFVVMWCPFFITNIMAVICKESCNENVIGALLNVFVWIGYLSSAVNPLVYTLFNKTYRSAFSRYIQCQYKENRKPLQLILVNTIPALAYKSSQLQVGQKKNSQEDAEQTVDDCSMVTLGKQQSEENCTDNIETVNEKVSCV

Row | IC50 [1] | SMILES | Ki (5-HT2A receptor) | Ki (5-HT2C receptor) | treatment of different forms of human anxiety (human beings)
1 | – | CN(C)CCCOc1ccccc1-c1nnc(-n2nc(N3CCCC3)nc2N)s1 [Example 44, 2-(5-Amino-3-pyrrolidino-1H-1,2,4-triazole-1-yl)-5-/ 2-(3-dimethylaminopropoxy)phenyl/-1,3,4-thiadiazole] | > 100 nM | 50 nM | –
2 | – | COc1ccc(CCN(C)CCCOc2ccccc2-c2nnc(-n3nc(SC)nc3N)s2)cc1OC [Example 98, 2-(5-Amino-3-methylthio-1H-1,2,4-triazole-1-yl)-5-{2-[3-methyl-3-/ 2-(3,4-dimethoxyphenylethyl)amino/propoxy]phenyl}-1,3,4-thiadiazole] | > 1000 nM | 24 nM | –
3 | 150 nM | COc1ccc([C@@H]2Sc3ccccc3N(CCN(C)C)C(=O)[C@@H]2OC(C)=O)cc1 [diltiazem, (2S)-cis-3-acetyloxy-5-(2-dimethylamino-ethyl)-2,3-dihydro-2-(4-methoxyphenyl)-1,5-benzothiazepine-4(5H)-one] | – | – | –
4 | – | Cc1nc2sccn2c(=O)c1CCN1CCC(=C(c2ccc(F)cc2)c2ccc(F)cc2)CC1 [ritanserin, 6-[2-/4-bis(4-fluorophenyl)-methylene/ -1-piperidinylethyl]-7-methyl-5H-thiazolo/3,2-a/pyrimidine-5-one] | – | – | proved to be effective for the treatment of different forms of human anxiety
